Values quoted from earlier work as cited in paper PMC8880268, “Magnolol and Luteolin Inhibition of α-Glucosidase Activity: Kinetics and Type of Interaction Detected by In Vitro and In Silico Studies” (Pharmaceuticals, 2022).

Tested on: α-glucosidase
Conditions: cited from earlier work; for type of inhibition (inhibition kinetic assays): ref 19; for IC50: studied with 0.5 µM of α-glucosidase ref 19

| SMILES | type of inhibition (inhibition kinetic assays) | IC50 |
| --- | --- | --- |
| O=c1c(O)c(-c2ccc(O)cc2)oc2cc(O)cc(O)c12 [compound 1, kaempferol] | non-competitive inhibitors |  |
| O=c1c(O)c(-c2ccc(O)c(O)c2)oc2cc(O)cc(O)c12 [compound 2, quercetin] | non-competitive inhibitors |  |
| O=C(OC1C(O)C(CO)OC(Oc2c(-c3ccc(O)c(O)c3)oc3cc(O)cc(O)c3c2=O)C1O)c1cc(O)c(O)c(O)c1 (centres unmarked) [compound 3] | non-competitive | 0.97 µM |
| O=C(OC[C@@H]1O[C@@H](Oc2c(-c3ccc(O)c(O)c3)oc3cc(O)cc(O)c3c2=O)[C@@H](O)[C@H](O)[C@@H]1O)c1cc(O)c(O)c(O)c1 [compound 4] | non-competitive inhibitor | 1.35 µM |
| O=C(OC[C@@H]1O[C@@H](Oc2c(-c3ccc(O)c(O)c3)oc3cc(O)cc(O)c3c2=O)[C@@H](O)[C@H](O)[C@H]1O)c1cc(O)c(O)c(O)c1 [compound 5] | competitive inhibitor | 27.8 µM |
